Experiments:
[1] = test system: backcrossed turfgrass samples; experiment: Glyphosate resistance phenotype of backcrossed turfgrass samples; format: in vivo
Description: In some embodiments, the germplasm can have more than one glyphosate resistant allele. At least one of the glyphosate resistant alleles is the single nucleotide polymorphism (“SNP”) for the EPSPS gene at nt301 of SEQ. ID. NO. 1. By sequencing of the EPSPS from sensitive and resistant ryegrass biotypes the SNP was identified. A change from cytosine to thymine at this position changes the amino acid from proline to serine. The SNP at nt301 of SEQ. ID. NO. 1 can be used as a marker to identify plants that carry the allele of the resistant form of EPSPS. As shown in Table 1 and highlighted in the Examples below, a second allele can contribute to the glyphosate resistance.
Having both the first allele (the SNP) and the second allele in a plant such as, for example, a turf grass, can increase resistance to glyphosate. In some embodiments, the second allele may be attributed to glyphosate oxidoreductase (“GOX”) enzyme encoded by a GOX gene. Only one of the alleles may be needed to produce a glyphosate resistant plant such as for example, a turfgrass. In some embodiments, the second allele can be identified as the Gly-Rest 2 gene. The Gly-Rest 2 gene encodes a glyphosate resistant protein that can be identified as the Gly-Resist Protein (“GRP”) which is different from the glyphosate resistant EPSPS. To identify which plants have only the GRP protein, the following is an example of an analysis that can be useful. The plants that have been crossed with a known glyphosate resistant parent are grown. A herbicidally effective amount of glyphosate is applied to the plants. The plants that survive the application are selected and a part of the plant is then used to determine if a biomarker for glyphosate resistant EPSPS is present. An example of such an analysis is discussed in the examples below. If the biomarker is present, then the plant has at least glyphosate resistant EPSPS and may have GRP. […] A biomarker analysis for GRP can be designed and designing such an analysis is well within the knowledge of those skilled in the art.

[2] = test system: EPSPS from R and S biotypes of rigid ryegrass; experiment: EPSPS activity assay in the presence of glyphosate; format: biochemical, Lolium rigidum; conditions: glyphosate from 5 to 5000 µM; crown tissue extract; R versus S biotype
Experimental: Extraction methods for EPSPS are modified from methods discussed in Boerboom et al., Weed Sci. 38:463-467 (1990). Crown tissue (0.5 gram fresh weight per sample) is harvested from California rigid ryegrass plants, frozen in liquid nitrogen, and grounded in a cold mortar with 150 mg polyvinylpolypyrrolidone (PVPP). The fine powder tissue is ground further in 0.5 ml extraction buffer (pH 7.5) containing 10 mM Trizma HC1, 1 mM ethylenediaminetetraacetic acid (EDTA), 10% (v/v) glycerol, 1 mg ml^−1 bovine serum albumin (BSA), 10 mM ascorbate, 1 mM benzamidine (BAM), and 5 mM dithiothreitol (DTT). The mixture is centrifuged at 15,000×g for 10 min, and the supernatant is desalted in 1.0 ml Sephadex G-50 column (^7 MICRO-SPINS® Shephadex G-50 column, Life Science Products Inc., Frederick, Colo.) and further centrifuged at 1,000×g for 3 min. Total protein in the supernatant is quantified spectrometrically at 595 nm followed the method discussed in Bradford, Anal. Biochem 72:248-254 (1976).
Assay of EPSPS activity is modified from methods discussed in Westwood and Weller, Weed Sci. 45:2-11 (1997). […]
Data from duplicate experiments with three replications of each treatment are analyzed by non-linear regression and fitted to a log-logistic model, […]

[3] = test system: Wild-type Agrobacterium; experiment: Growth in M-9 media with glyphosate, wild-type; format: cell-based, Agrobacterium tumefaciens; conditions: 48 hours
Experimental: The confirmed plasmid is transformed into Agrobacterium tumefaciens by “freeze thaw technique” using liquid nitrogen. The transformed Agrobacterium is grown in LB plated and maintained 28° C. for 72 h. Some colonies are grown in LB broth for 24 h and tested for the inserted EPSPS gene by PCR. The confirmed Agrobacterium is grown in 50 mL LB broth for 24 h. The Agrobacterium is centrifuged at 5000×g for 10 min, and the pellets are diluted with 2 mL 1.0 M CaCl2. At the same time, a wild-type Agrobacterium is also grown and extracted similar to the transformed Agrobacterium. The Agrobacterium solutions (10 μL) are grown in 50 mL media containing 1×M-9 salt media (SIGMA), 20 mM glucose, 2 mM MgSO4, and glyphosate at 0, 0.25, 0.5, 0.75, 1.0, 1.5, and 2 mM.
The growth (indicated by Optical Density 600 nm) is measured after 48 hours.

## O=C(O)CNCP(=O)(O)O [glyphosate, N-(phosphonomethyl) glycine]
[1]; sample 1 S control, SNP No
  Phenotype (Dead): 1X
[1]; sample 2 R control, SNP Yes
  Phenotype (Dead): 8X
[1]; sample 3, SNP No
  Phenotype (Dead): 2X
[1]; sample 4, SNP Yes
  Phenotype (Dead): 2X
[1]; sample 5, SNP Yes
  Phenotype (Dead): 8X
[1]; sample 6, SNP No
  Phenotype (Dead): 1X
[1]; sample 7, SNP No
  Phenotype (Dead): 4X
[1]; sample 8, SNP No
  Phenotype (Dead): 1X
[1]; sample 9, SNP Yes
  Phenotype (Dead): 4X
[1]; sample 10, SNP No
  Phenotype (Dead): 4X
[1]; sample 11, SNP Yes
  Phenotype (Dead): 4X
[1]; sample 12, SNP Yes
  Phenotype (Dead): 4X
[1]; sample 13, SNP No
  Phenotype (Dead): 1X
[1]; sample 14, SNP No
  Phenotype (Dead): 2X
[1]; sample 15, SNP Yes
  Phenotype (Dead): 4X
[1]; sample 16, SNP Yes
  Phenotype (Dead): 4X
[1]; sample 17, SNP Yes
  Phenotype (Dead): 6X
[1]; sample 18, SNP Yes
  Phenotype (Dead): 2X
[1]; sample 19, SNP No
  Phenotype (Dead): 4X
[1]; sample 20, SNP No
  Phenotype (Dead): 4X
[1]; sample 21, SNP No
  Phenotype (Dead): 4X
[1]; sample 22 S control, SNP No
  Phenotype (Dead): 1X
[1]; sample 23 R control, SNP Yes
  Phenotype (Dead): 8X
[2]
  inhibition of EPSPS activity: significantly inhibited more in S than in R
[3]; glyphosate 0.25 mM
  Growth, OD 600 nm: 0.236
  Growth, Percent: 37%
[3]; glyphosate 0.50 mM
  Growth, OD 600 nm: 0.005
  Growth, Percent: 0.8%
[3]; glyphosate 0.75 mM
  Growth, OD 600 nm: 0.005
  Growth, Percent: 0.8%
[3]; glyphosate 1.00 mM
  Growth, OD 600 nm: 0.004
  Growth, Percent: 0.8%
[3]; glyphosate 1.50 mM
  Growth, OD 600 nm: 0.004
  Growth, Percent: 0.8%
[3]; glyphosate 2.00 mM
  Growth, OD 600 nm: 0.004
  Growth, Percent: 0.8%
